# Experimental data reported in article PMC9732823, “Discovery of Dual Aβ/Tau Inhibitors and Evaluation of Their Therapeutic Effect on a Drosophila Model of Alzheimer’s Disease” (ACS Chemical Neuroscience, 2022).
# How the values were obtained:
# Aβ42 = biological target: T1, Aβ42 (Homo sapiens, UniProt P05067); assay: Inhibition of Aβ42 aggregation in intact E. coli cells overexpressing Aβ42 (ThS fluorescence); format: cell-based, Escherichia coli
# T1 construct: expressed in transfected cells; host or cells: Escherichia coli BL21 (DE3), pET28a
# How it was run: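 E. coli BL21(DE3) expressing Met-Aβ42 grown in M9 with 250 μM ThS, induced with IPTG at OD600 0.6 alongside 10 μM compound, then overnight at 37 °C. ThS emission at 485 nm (ex 440 nm) normalised to OD600. 100% = induced cells without drug, 0% = non-induced cells.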
# preaggregated Aβ42 = biological target: T2, preaggregated Aβ42 (Homo sapiens, UniProt P05067); assay: Optical properties of 23 in the presence of aggregated Aβ42 (fluorescence emission spectra); format: binding; settings: 23 0.375 μM, Aβ42 0.75 μM, Gly-NaOH buffer 50 mM pH 8.5, λexc = 374 nm
# T2 construct: (HFIP)-pretreated Aβ42 samples (Bachem AG, Switzerland); purchased Bachem AG, Switzerland
# Excerpt: The interaction of a fluorescent compound with three-dimensionally organized Aβ42 fibrils may lead to a change in its fluorescent properties as a consequence of either a reduction of flexibility due to multiple-interaction points and/or of a change in compound–solvent interactions because of the insertion of the compound within fibril helices. […] This assay setup allows the use of a slightly higher amount of DMSO, which is sufficient to grant compound solubility, because addition of the tested compound to Aβ42 samples is performed when fibrillization has already occurred.
# Thus, we recorded the emission spectra of compound 23 in the absence and presence of preaggregated Aβ42.
# As reported in a previously published protocol,[42] 1,1,1,3,3,3,-hexafluoro-2-propanol (HFIP)-pretreated Aβ42 samples (Bachem AG, Switzerland) were solubilized with a CH3CN/0.3 mM Na2CO3/250 mM NaOH (48.4:48.4:3.2) mixture to obtain a 500 μM solution. […]
# A 1.5 mM stock solution of 23 in methanol was prepared and diluted in 50 mM glycine–NaOH buffer (pH 8.5) to a final concentration of 0.375 μM. Excitation and emission fluorescence spectra in the absence and in the presence of preaggregated Aβ42 (0.75 μM) were recorded using the following instrument setup: λexc = 374 nm, emission range = 400–600 nm; λem = 473 nm; excitation range = 250–460 nm; bandwidth (Ex) = 5 nm; bandwidth (Em) = 5 nm; scanning speed = […].
# [1] = tested on: Arctic Aβ42 Drosophila flies; assay: Climbing assay in Arctic Aβ42 Drosophila flies; settings: 20 μM in fly food
# Experimental: Thus, we performed behavioral tests to assess the climbing abilities of Aβ42Drosophila flies with and without treatment with 22 (20 μM), 23 (20 μM), and doxycycline (50 μM), compared to control flies.
# (§1) The transactivating protein GAL4 is placed under the control of a specific promoter, with its own spatial and temporal patterns, in this case, Elav, whereas the upstream activation sequence (UAS) localized upstream, the locus controlled by the UAS-Gal4; in our study, UAS expresses construct for the E22G variant of Aβ42 (Arctic Aβ42) (AlzArc2).[56],[64] Around 150 flies (half female/male) for each compound tested were collected and divided into groups of 25 flies. At the top of the media, 25 μL of doxycycline (50 μM), 22 (20 μM), or 23 (20 μM) were added fresh anytime the flies were flipped.
# Briefly, males and females 25 per vial were kept at 25 °C. The climbing test was performed on days 7, 14, and 21 after birth. […] The protocol was repeated 10 times at 5-min intervals.
# [2] = tested on: Arctic Aβ42 Drosophila flies; assay: Lifespan analysis in Arctic Aβ42 Drosophila flies; settings: 20 μM in fly food; days 5, 10, 20 post-eclosion
# Experimental: As longevity is a phenotype that can be rapidly measured in this in vivo AD model, we first assessed changes in Drosophila’s lifespan with and without treatment with 22 and 23 (20 μM). […] Doxycycline was tested at 50 μM, a concentration used in similar previous experiments.[59]
# as §1
# Briefly, males and females 25 per vial were kept at 25 °C.
# T1 sequence (P05067 672-713 limits assumed): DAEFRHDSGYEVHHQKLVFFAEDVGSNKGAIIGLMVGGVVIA
# T2 sequence (P05067 672-713 limits assumed): as above
compound,measurement,setting,value
"CN(C)CCN1C(=O)S/C(=C\c2ccc3c(c2)C(C)(C)c2cc(/C=C4\SC(=O)N(CCN(C)C)C4=O)ccc2-3)C1=O [Compound 23, (5Z,5′Z)-5,5′-((9,9-Dimethyl-9H-fluorene-2,7-diyl)bis(methanylylidene))bis(3-(2-(dimethylamino)ethyl)thiazolidine-2,4-dione)]",% inhibition Aβ42 aggregation @ 10 μM,"Aβ42; intact E. coli cells, compound 10 μM, mean ± SEM of four independent experiments, 10 µM",44.8 ± 4.7%
same,inhibition at 10 µM,"Aβ42; read-out: % inhibition Aβ42 aggregation @ 10 μM, intact E. coli cells, compound 10 μM, mean ± SEM of four independent experiments",> 40%
same,change of fluorescence emission upon binding to preaggregated Aβ42,preaggregated Aβ42,strong hyperchromic effect upon binding
same,climbing abilities of Aβ42 Drosophila flies on day 21,[1]; day 21,no difference between the treated and untreated flies
same,climbing abilities of Aβ42 Drosophila flies,"[1]; days 7, 14, 21 post-eclosion",partially recovered phenotype that lasted until day 14
same,lifespan of Aβ42 Drosophila flies,[2],increase in longevity
